Results on 18 molecules are retold here after patent US11234979B2, “Heteroaryl compounds as muscarinic M1 receptor positive allosteric modulators” (SUVEN LIFE SCIENCES LIMITED, priority 2017, dated 2022).

The nature of data set [1]: Rodent brain penetration study. Type of data set: in vivo, Male Wistar rats. The settings on record: male, Wistar, brain and plasma, po; rat, 3 mg/kg, p.o. @ 1.0 hr, brain-plasma ratio; read-out: Single dose Rat Brain Penetration (Cb/Cp). As for the experimental part:
Rodent Brain Penetration Study
Male Wistar rats (260±40 grams) were used as experimental animals. Three animals were housed in each cage. Animals were given water and food ad libitum throughout the experiment and maintained on a 12 hours light/dark cycle.
Brain penetration was determined in discrete manner in rats. One day prior to dosing day, male Wistar rats were acclimatized and randomly grouped according to their weight. At each time point (0.5, 1 and 2 hours) n=3 animals were used.
The test compounds were suitably preformulated and administered orally at (free base equivalent) 3 mg/kg. Blood samples were removed via cardiac puncture by using isoflurane anesthesia. The animals were sacrificed to collect brain tissue. Plasma was separated and brain samples were homogenized and stored frozen at −20° C. until analysis. The concentrations of the test compounds in plasma and brain were determined using LC-MS/MS method.
The test compounds were quantified in plasma and brain homogenate by qualified LC-MS/MS method using suitable extraction technique. The test compounds were quantified in the calibration range of 1-500 ng/mL in plasma and brain homogenate. Study samples were analyzed using calibration samples in the batch and quality control samples spread across the batch.

Data set [2] can be described thus: Rodent pharmacokinetic study. Type of data set: in vivo, Male Wistar rats. The settings on record: male, Wistar, rat, plasma; for bioavailability: oral 3 mg/kg vs i.v. 1 mg/kg. As for the experimental part: Rodent Pharmacokinetic Study
Male Wistar rats (260±50 grams) were used as experimental animals. Animals were housed individually in polypropylene cage. Two days prior to study, male Wistar rats were anesthetized with isoflurane for surgical placement of jugular vein catheter. Rats were randomly divided for oral (3 mg/kg) and intravenous (i.v) (1 mg/kg) dosing (n=3/group) and fasted overnight before oral dosing (p.o.). However, rats allocated to intravenous (i.v.) dosing food and water was provided ad libitum.
At pre-determined point, blood was collected through jugular vein and replenished with an equivalent volume of normal saline. Collected blood was transferred into a labeled eppendorf tube containing 10 μL of heparin as an anticoagulant. Typically blood samples were collected at following time points: 0.08, 0.25, 0.5, 1, 2, 4, 6, 8, and 24 hours post dose. Blood was centrifuged at 4000 rpm for 10 minutes. Plasma was separated and stored frozen at −80° C. until analysis. The concentrations of the test compounds were quantified in plasma by qualified LC-MS/MS method using suitable extraction technique. The test compounds were quantified in the calibration range around 1-1000 ng/mL in plasma. Study samples were analyzed using calibration samples in the batch and quality control samples spread across the batch.
Pharmacokinetic parameters Cmax, AUCt, T1/2, clearance and bioavailability (F) were calculated by non-compartmental model using standard non-compartmental model by using Phoenix WinNonlin 6.0.2 or 6.0.3 version Software package.

For data set [3], the target named is T1, recombinant human Muscarinic M1 receptor (Homo sapiens, UniProt P11229).
T1 construct: expressed in transfected cells
T1 sequence (P11229 1-460): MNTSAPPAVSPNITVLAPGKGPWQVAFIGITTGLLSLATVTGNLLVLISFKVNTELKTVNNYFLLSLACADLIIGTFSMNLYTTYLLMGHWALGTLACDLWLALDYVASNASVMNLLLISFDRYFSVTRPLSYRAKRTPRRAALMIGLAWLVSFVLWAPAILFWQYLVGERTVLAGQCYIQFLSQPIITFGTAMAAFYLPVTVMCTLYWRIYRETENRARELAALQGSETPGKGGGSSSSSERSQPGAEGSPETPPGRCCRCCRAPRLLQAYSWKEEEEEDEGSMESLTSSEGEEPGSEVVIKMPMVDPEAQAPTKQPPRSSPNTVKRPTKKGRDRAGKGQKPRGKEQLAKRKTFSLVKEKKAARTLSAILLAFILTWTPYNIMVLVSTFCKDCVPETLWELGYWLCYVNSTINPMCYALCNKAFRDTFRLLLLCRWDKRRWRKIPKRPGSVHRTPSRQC
As to the kind of experiment: Allosteric potency EC50 for Muscarinic M1 receptor, CHO pCRE-Luc reporter assay with EC20 of acetylcholine. It is filed as cell-based. The settings on record: CHO cells, in presence of EC20 of acetylcholine, 4 hours. The procedure: Determination of Allosteric Potency EC50 Values for Muscarinic M1 Receptor:
A stable CHO cell line expressing recombinant human Muscarinic M1 receptor and pCRE-Luc reporter system was used for cell-based assay. The assay offers a non-radioactive based approach to determine binding of a compound to GPCRs. In this specific assay, the level of intracellular cyclic AMP which is modulated by activation or inhibition of the receptor is measured. The recombinant cells harbor luciferase reporter gene under the control of cAMP response element.
The above cells were grown in 96 well clear bottom white plates in Hams F12 medium containing 10% fetal bovine serum (FBS). Prior to the addition of compounds or standard agonist, cells were serum starved overnight. Increasing concentrations of test compounds were added along with EC20 of acetylcholine in OptiMEM medium to the cells. The incubation was continued at 37° C. in CO2 incubator for 4 hours. Medium was removed and cells were washed with phosphate buffered saline. The cells were lysed and luciferase activity was measured in a Luminometer. Luminescence counts in each concentrations of test item were normalized to the acetylcholine induced maximum response and the data was analyzed using Graphpad software. EC50 values of the compounds were defined as the concentration required in stimulating the luciferase activity by 50% in presence of EC20 of acetylcholine.

The structures appear in SMILES notation.

With `O=C(N[C@H]1CCCC[C@@H]1O)c1cc(Cc2ccc(Br)c(F)c2)c2cccnn12` [Example 3, N-(cis-1S,2S-2-Hydroxycyclohexyl)-5-(4-bromo-3-fluorobenzyl)-pyrrolo[1,2-b]pyridazine-7-carboxamide], the Kp at 1 h in data set [1] is 1.9 ± 0.27. In data set [2] (iv, i.v. 1 mg/kg), this molecule showed an area under the curve AUC(0-t) of 951 ± 213 ng·h/mL, a half-life of 3.5 ± 1.1 h and a clearance of 17 ± 3 mL/min/kg. Further, the bioavailability in data set [2] amounted to 49 ± 27%. In addition, in data set [2] (oral 3 mg/kg), the AUC(0-t) is 1390 ± 780 ng·h/mL, the concentration peaked (Cmax) at 132 ± 31 ng/mL and the half-life is 3.6 ± 0.2 h. The concentration for a half-maximal effect (EC50) in data set [3] was found to be 653 nM.

For the molecule `O=C(N[C@H]1CCCC[C@@H]1O)c1cc(Cc2ccc3c(c2)CCO3)c2cccnn12` [Example 4, N-(cis-1S,2S-2-Hydroxycyclohexyl)-5-(2,3-dihydrobenzofuran-5-ylmethyl)-pyrrolo[1,2-b]pyridazine-7-carboxamide], the Kp at 1 h in data set [1] came to 1.31 ± 0.11. In addition, in data set [2] (iv, i.v. 1 mg/kg), the AUC(0-t) was 599 ± 58 ng·h/mL, the half-life was 2.4 ± 0.9 h and the clearance turned out to be 27 ± 3.4 mL/min/kg. Further, the bioavailability in data set [2] was 25 ± 4%. In data set [2] (oral 3 mg/kg), this molecule had an AUC(0-t) of 457 ± 73 ng·h/mL, a Cmax of 105 ± 3 ng/mL and a half-life of 3.9 ± 1.4 h. The concentration giving a half-maximal response (EC50) in data set [3] worked out at 836 nM.

Turning to `O=C(N[C@H]1CCCC[C@@H]1O)c1cc(Cc2ccc(-n3cccn3)cc2)c2cccnn12` [Example 21, N-(cis-1S,2S-2-Hydroxycyclohexyl)-5-(4-pyrazol-1-ylbenzyl)-pyrrolo[1,2-b]pyridazine-7-carboxamide], the Kp at 1 h in data set [1] is 0.24 ± 0.02. In data set [2] (iv, i.v. 1 mg/kg), this molecule gave an exposure AUC(0-t) of 3700 ± 768 ng·h/mL, a half-life of 2.5 ± 0.7 h and a clearance of 4.6 ± 0.9 mL/min/kg. For the same molecule, the bioavailability in data set [2] is 49 ± 12%. In addition, in data set [2] (oral 3 mg/kg), the AUC(0-t) was 5470 ± 1370 ng·h/mL, the peak level (Cmax) was 687 ± 169 ng/mL and the half-life was 3.4 ± 1.01 h. Further, in data set [3], the half-maximal effective concentration (EC50) amounted to 179 nM.

For `Cn1cc(-c2ccc(Cc3cc(C(=O)N[C@H]4CCCC[C@@H]4O)n4ncccc34)cc2F)cn1` [Example 33, N-(cis-1S,2S-2-Hydroxycyclohexyl)-5-[3-fluoro-4-(1-methyl-1H-pyrazol-4-yl)-benzyl]-pyrrolo[1,2-b]pyridazine-7-carboxamide], the Kp at 1 h in data set [1] was 0.2 ± 0.001. In addition, in data set [2] (iv, i.v. 1 mg/kg), the AUC(0-t) was 908 ± 164 ng·h/mL, the half-life was 1.3 ± 0.2 h and the clearance is 19 ± 3.8 mL/min/kg. Moreover, in data set [2], the bioavailability came to 103 ± 0.7%. In data set [2] (oral 3 mg/kg), this molecule showed an AUC(0-t) of 2820 ± 20 ng·h/mL, a Cmax of 414 ± 21 ng/mL and a half-life of 2.7 ± 0.1 h. Moreover, in data set [3], the EC50 worked out at 259 nM.

As for `Cn1cc(-c2cccc(Cc3cc(C(=O)N[C@H]4CCCC[C@@H]4O)n4ncccc34)c2)cn1` [Example 38, N-(cis-1S,2S-2-Hydroxycyclohexyl)-5-[3-(1-methyl-1H-pyrazol-4-yl)-benzyl]-pyrrolo[1,2-b]pyridazine-7-carboxamide], in data set [3], the EC50 amounted to 1530 nM.

For `Cn1cc(-c2ccc(Cc3cc(C(=O)NC4CCOCC4O)n4ncccc34)cc2)cn1` (centres unmarked) [Example 39, N-(3-Hydroxytetrahydropyran-4-yl)-5-[4-(1-methyl-1H-pyrazol-4-yl)-benzyl]-pyrrolo[1,2-b]pyridazine-7-carboxamide], in data set [3], the concentration for a half-maximal effect (EC50) is 291 nM.

Turning to `Cn1cc(-c2cc(Cc3cc(C(=O)N[C@H]4CCCC[C@@H]4O)n4ncccc34)ccn2)cn1` [Example 40, N-(cis-1S,2S-2-Hydroxycyclohexyl)-5-[2-(1-methyl-1H-pyrazol-4-yl)-pyridin-4-ylmethyl]-pyrrolo[1,2-b]pyridazine-7-carboxamide], the EC50 in data set [3] amounted to 1650 nM.

For `O=C(N[C@H]1CCCC[C@@H]1O)c1cc(Cc2ccc(Br)cc2)n2cccc(F)c12` [Example 41, N-(cis-1S,2S-2-Hydroxycyclohexyl)-3-(4-bromobenzyl)-8-fluoroindolizine-1-carboxamide], in data set [3], the EC50 was 236 nM.

Consider `O=C(N[C@H]1CCCC[C@@H]1O)c1cc(Cc2ccccc2)n2cccc(F)c12` [Example 42, N-(cis-1S,2S-2-Hydroxycyclohexyl)-3-benzyl-8-fluoroindolizine-1-carboxamide], for which, in data set [3], the 50% effective concentration (EC50) amounted to 1130 nM.

In the case of `O=C(N[C@H]1CCCC[C@@H]1O)c1cc(Cc2ccnc(Cl)c2)n2cccc(F)c12` [Example 43, N-(cis-1S,2S-2-Hydroxycyclohexyl)-3-(2-chloropyridine-4-ylmethyl)-8-fluoroindolizine-1-carboxamide], the 50% effective concentration (EC50) in data set [3] is 2060 nM.

As for `COc1ccc(Cc2cc(C(=O)N[C@H]3CCCC[C@@H]3O)c3c(F)cccn23)cc1` [Example 44, N-(cis-1S,2S-2-Hydroxycyclohexyl)-3-(4-methoxybenzyl)-8-fluoroindolizine-1-carboxamide], the EC50 in data set [3] worked out at 1590 nM.

On to `O=C(N[C@H]1CCCC[C@@H]1O)c1cc(Cc2ccc(-c3cscn3)cc2)n2cccc(F)c12` [Example 45, N-(cis-1S,2S-2-Hydroxycyclohexyl)-3-(4-thiazol-4-yl-benzyl)-8-fluoroindolizine-1-carboxamide], for which the EC50 in data set [3] was 3190 nM.

In the case of `O=C(NC1CCOCC1O)c1cc(Cc2ccnc(Cl)c2)n2cccc(F)c12` (centres unmarked) [Example 46, N-(3-Hydroxytetrahydropyran-4-yl)-3-(2-chloropyridine-4-ylmethyl)-8-fluoroindolizine-1-carboxamide], the EC50 in data set [3] is 463 nM.

Regarding `COc1ccc(Cc2cc(C(=O)NC3CCOCC3O)c3c(F)cccn23)cc1` (centres unmarked) [Example 47, N-(3-Hydroxytetrahydropyran-4-yl)-3-(4-methoxybenzyl)-8-fluoroindolizine-1-carboxamide], the EC50 in data set [3] came to 1110 nM.

With `Cn1cc(-c2ccc(Cc3cc(C(=O)N[C@H]4CCCC[C@@H]4O)c4c(F)cccn34)cc2)cn1` [Example 48, N-(cis-1S,2S-2-Hydroxycyclohexyl)-5-[4-(1-methyl-1H-pyrazol-4-yl)-benzyl]-8-fluoroindolizine-1-carboxamide], the EC50 in data set [3] stood at 166 nM.

On to `Cn1cc(-c2ccc(Cc3cc(C(=O)NC4CCOCC4O)c4c(F)cccn34)cc2)cn1` (centres unmarked) [Example 49, N-(3-Hydroxytetrahydropyran-4-yl)-3-(4-(1-methyl-1H-pyrazol-4-yl)-benzyl)-8-fluoroindolizine-1-carboxamide], for which the EC50 in data set [3] is 1210 nM.

With `Cn1cc(-c2ccc(Cc3cc(C(=O)NC4CCOCC4)c4c(F)cccn34)cc2)cn1` [Example 50, N-(Tetrahydropyran-4-yl)-3-(4(1-methyl-1H-pyrazol-4-yl)-benzyl)-8-fluoroindolizine-1-carboxamide], the EC50 in data set [3] came to 2530 nM.

For the molecule `Cn1cc(-c2ccc(Cc3cc(C(=O)NC4COCCC4O)c4c(F)cccn34)cc2)cn1` (centres unmarked) [Example 51, N-(4-Hydroxytetrahydropyran-3-yl)-3-(4-(1-methyl-1H-pyrazol-4-yl)-benzyl)-8-fluoroindolizine-1-carboxamide], in data set [3], the EC50 came to 3650 nM.
